Read-outs that look alike come from different tables or passages of the source.
Columns and labels:
SMARCA4 = SMARCA4 (Homo sapiens, UniProt P51532); assay: HiBiT assay for protein degradation, Hela SMARCA4-HiBiT cells (A series); format: cell-based; parameters: fuse HiBiT to the carboxy terminus of SMARCA2 (Promega CS302365) or SMARCA4 (Promega CS3023225); host or cells: HeLa (CRISPR/Cas9 HiBiT knock-in); details: for DC50: read-out: SMARC A4 Hela HiBit DC50
Procedure: Hela cells were genetically modified via CRISPR/Cas9 to fuse HiBiT to the carboxy terminus of SMARCA2 (Promega CS302365) or SMARCA4 (Promega CS3023225). Cells were cultured in DMEM containing 10% FBS and 1% (Vol:Vol) penicillin-streptomycin. […] At the end of experiment, levels of SMARCA2 or SMARCA4 expression were assessed with Nano-Glo® HiBiT Lytic Detection Assay (Promega N3050). IC50 was obtained using the GraphPad Prism data analysis software.

SMARCA2 = SMARCA2 (Homo sapiens, UniProt P51531); assay: HiBiT assay for protein degradation, Hela SMARCA2-HiBiT cells (A series); format: cell-based; parameters: Hela cells were genetically modified via CRISPR/Cas9 to fuse HiBiT to the carboxy terminus of SMARCA2; host or cells: HeLa (CRISPR/Cas9 HiBiT knock-in); details: for DC50: read-out: SMARC A2 Hela HiBit DC50; for Dmax: read-out: SMARC A2 Hela HiBit Dmax (%);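 on SMARC A2 Hela HiBit Dmax (%): 24 h compound treatment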
Sequence of SMARCA2 (P51531 whole entry, the tested form may be a part): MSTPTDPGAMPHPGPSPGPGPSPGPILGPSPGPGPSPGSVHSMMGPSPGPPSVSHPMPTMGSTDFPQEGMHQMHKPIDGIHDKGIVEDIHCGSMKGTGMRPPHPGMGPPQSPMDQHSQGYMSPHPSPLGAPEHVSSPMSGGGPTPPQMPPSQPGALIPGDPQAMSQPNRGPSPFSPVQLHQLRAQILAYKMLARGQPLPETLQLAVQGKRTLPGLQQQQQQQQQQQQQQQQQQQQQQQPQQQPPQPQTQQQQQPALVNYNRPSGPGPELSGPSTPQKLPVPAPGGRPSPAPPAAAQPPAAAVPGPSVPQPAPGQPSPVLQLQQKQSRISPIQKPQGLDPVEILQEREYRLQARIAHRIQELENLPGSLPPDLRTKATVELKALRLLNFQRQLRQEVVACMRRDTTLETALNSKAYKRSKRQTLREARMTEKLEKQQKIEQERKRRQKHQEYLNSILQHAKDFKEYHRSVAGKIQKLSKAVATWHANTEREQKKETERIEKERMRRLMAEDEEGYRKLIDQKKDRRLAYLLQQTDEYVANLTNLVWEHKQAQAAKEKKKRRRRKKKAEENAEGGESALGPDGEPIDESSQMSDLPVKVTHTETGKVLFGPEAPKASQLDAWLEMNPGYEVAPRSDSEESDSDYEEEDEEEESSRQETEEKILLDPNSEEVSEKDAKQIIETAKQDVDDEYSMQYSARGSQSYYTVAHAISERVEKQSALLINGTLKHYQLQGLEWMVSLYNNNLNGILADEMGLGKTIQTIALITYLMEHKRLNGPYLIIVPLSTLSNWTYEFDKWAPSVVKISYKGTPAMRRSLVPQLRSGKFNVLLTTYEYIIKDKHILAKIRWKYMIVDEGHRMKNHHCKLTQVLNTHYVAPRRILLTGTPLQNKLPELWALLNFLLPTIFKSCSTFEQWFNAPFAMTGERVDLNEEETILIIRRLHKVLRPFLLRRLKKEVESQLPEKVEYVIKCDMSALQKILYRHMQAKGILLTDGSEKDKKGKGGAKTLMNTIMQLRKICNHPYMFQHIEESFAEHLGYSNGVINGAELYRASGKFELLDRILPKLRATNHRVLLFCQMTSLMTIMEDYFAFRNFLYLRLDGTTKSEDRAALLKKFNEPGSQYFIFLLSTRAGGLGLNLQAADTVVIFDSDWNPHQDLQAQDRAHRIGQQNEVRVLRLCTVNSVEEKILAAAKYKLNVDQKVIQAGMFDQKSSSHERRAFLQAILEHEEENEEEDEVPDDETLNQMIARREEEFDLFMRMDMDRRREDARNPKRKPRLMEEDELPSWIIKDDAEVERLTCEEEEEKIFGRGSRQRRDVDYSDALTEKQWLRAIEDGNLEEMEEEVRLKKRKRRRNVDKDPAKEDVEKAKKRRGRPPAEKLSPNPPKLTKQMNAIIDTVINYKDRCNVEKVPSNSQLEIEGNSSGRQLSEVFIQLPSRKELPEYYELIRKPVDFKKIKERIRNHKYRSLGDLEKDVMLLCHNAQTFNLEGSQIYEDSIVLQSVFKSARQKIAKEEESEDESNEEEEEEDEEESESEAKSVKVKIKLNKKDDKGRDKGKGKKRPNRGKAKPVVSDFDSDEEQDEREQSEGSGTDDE
Procedure, shortened: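 HeLa cells engineered by CRISPR/Cas9 to carry a HiBiT tag fused to the C-terminus of SMARCA2 (Promega CS302365) were grown in DMEM supplemented with FBS and penicillin-streptomycin. After treatment, remaining SMARCA2 protein was quantified with the Nano-Glo® HiBiT Lytic Detection Assay (Promega N3050), and curves were fitted in GraphPad Prism.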

[1] = Hela SMARCA4-HiBiT cells, 24 hours treatment
[2] = Hela SMARCA4-HiBiT cells, 24 hours treatment, read-out: SMARC A4 Hela HiBit Dmax(%)
[3] = Hela SMARCA2-HiBiT cells, 24 hours treatment
[4] = Hela SMARCA4-HiBiT cells, 24 hours treatment, read-out: SMARC A4 Hela HiBit Dmax

Sequence of SMARCA4 (P51532 whole entry): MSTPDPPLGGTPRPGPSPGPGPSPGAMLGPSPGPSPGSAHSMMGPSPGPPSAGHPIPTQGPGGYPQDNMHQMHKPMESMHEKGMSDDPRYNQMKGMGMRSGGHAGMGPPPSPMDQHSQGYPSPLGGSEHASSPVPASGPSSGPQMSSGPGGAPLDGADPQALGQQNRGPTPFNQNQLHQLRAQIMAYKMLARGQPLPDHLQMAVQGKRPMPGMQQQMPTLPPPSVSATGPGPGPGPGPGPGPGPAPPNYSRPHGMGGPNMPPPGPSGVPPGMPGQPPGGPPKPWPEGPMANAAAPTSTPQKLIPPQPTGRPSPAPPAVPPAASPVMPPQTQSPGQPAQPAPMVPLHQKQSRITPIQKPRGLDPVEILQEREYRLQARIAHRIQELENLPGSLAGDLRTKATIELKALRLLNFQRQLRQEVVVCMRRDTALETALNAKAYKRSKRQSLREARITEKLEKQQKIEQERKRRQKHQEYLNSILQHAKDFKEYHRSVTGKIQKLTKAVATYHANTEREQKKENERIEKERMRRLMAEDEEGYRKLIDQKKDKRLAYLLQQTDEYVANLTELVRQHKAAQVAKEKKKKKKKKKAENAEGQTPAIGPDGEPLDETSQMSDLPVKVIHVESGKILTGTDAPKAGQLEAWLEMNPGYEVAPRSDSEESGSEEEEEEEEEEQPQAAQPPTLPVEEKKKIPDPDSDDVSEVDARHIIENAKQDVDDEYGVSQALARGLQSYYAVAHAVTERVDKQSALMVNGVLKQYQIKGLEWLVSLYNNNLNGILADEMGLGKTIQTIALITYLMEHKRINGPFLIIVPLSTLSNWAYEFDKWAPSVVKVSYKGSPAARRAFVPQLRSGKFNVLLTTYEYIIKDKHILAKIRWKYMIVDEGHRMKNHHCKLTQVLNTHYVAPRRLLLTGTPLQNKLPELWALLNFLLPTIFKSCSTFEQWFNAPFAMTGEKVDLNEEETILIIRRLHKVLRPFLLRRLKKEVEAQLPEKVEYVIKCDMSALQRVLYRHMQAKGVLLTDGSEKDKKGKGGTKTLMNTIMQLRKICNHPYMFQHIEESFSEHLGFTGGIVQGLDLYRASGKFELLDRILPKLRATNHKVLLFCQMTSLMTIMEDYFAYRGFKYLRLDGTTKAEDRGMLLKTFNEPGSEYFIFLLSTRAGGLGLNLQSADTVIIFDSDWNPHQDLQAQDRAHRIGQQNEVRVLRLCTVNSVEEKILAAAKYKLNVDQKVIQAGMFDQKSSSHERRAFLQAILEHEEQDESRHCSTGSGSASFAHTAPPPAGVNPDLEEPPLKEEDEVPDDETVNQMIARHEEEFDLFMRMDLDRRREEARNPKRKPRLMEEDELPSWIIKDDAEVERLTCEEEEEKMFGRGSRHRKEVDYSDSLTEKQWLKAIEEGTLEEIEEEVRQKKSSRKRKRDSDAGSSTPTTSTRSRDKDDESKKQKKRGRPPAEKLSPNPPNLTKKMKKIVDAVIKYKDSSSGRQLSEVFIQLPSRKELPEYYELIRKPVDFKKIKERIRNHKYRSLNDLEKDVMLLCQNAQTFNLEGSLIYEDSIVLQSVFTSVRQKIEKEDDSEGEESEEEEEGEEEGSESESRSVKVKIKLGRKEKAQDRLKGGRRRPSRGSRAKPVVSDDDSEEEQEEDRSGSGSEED

Compound	DC50 (SMARCA4; [1]) [µM]	Dmax (SMARCA4; [2]) [%]	DC50 (SMARCA2; [3]) [µM]	Dmax (SMARCA2; [3]) [%]	Dmax (SMARCA4; [4]) [%]	Dmax (SMARCA4; HeLa, read-out: SMARC A4 Hela HiBit Dmax(%)) [%]	Dmax (SMARCA2; HeLa) [%]
COCCOCCOCCOC[C@H](NC(=O)[C@@H]1C[C@@H](O)CN1C(=O)[C@@H](n1cc([C@H]2CC[C@H](CN3CCC(c4ccc5c(c4)-n4c(nc(=O)c6c(Cl)cccc64)C54CCCCC4)CC3)CC2)nn1)C(C)(C)C)c1ccc(-c2scnc2C)cc1 [Compound A148, (2S,4R)-1-((S)-2-(4-((1r,4S)-4-((4-(4′-chloro-5′-oxo-5′H-spiro[cyclohexane-1,7′-indolo[1,2-a]quinazolin]-10′-yl)piperidin-1-yl)methyl)cyclohexyl)-1H-1,2,3-triazol-1-yl)-3,3-dimethylbutanoyl)-4-hydroxy-N—((R)-13-(4-(4-methylthiazol-5-yl)phenyl)-2,5,8,11-tetraoxatridecan-13-yl)pyrrolidine-2-carboxamide]	> 1		< 0.01	> 90	50 to 69		
Cc1ncsc1-c1ccc([C@H](COCC(=O)O)NC(=O)[C@@H]2C[C@@H](O)CN2C(=O)[C@@H](n2cc([C@H]3CC[C@H](CN4CCC(c5ccc6c(c5)-n5c(nc(=O)c7c(Cl)cccc75)C65CCCCC5)CC4)CC3)nn2)C(C)(C)C)cc1 [Compound A155, 2-((R)-2-((2S,4R)-1-((S)-2-(4-((1r,4S)-4-((4-(4′-chloro-5′-oxo-5′H-spiro[cyclohexane-1,7′-indolo[1,2-a]quinazolin]-10′-yl)piperidin-1-yl)methyl)cyclohexyl)-1H-1,2,3-triazol-1-yl)-3,3-dimethylbutanoyl)-4-hydroxypyrrolidine-2-carboxamido)-2-(4-(4-methylthiazol-5-yl)phenyl)ethoxy) acetic acid]	> 1		0.1 to 1	70 to 90	< 50		
COCCOC[C@H](NC(=O)[C@@H]1C[C@@H](O)CN1C(=O)[C@@H](n1cc([C@H]2CC[C@H](CN3CCC(c4ccc5c(c4)-n4c(nc(=O)c6c(Cl)cccc64)C5(C)C)CC3)CC2)nn1)C(C)(C)C)c1ccc(-c2scnc2C)cc1 [Compound A91, (2S,4R)-1-((S)-2-(4-((1r,4S)-4-((4-(4-chloro-7,7-dimethyl-5-oxo-5,7-dihydroindolo[1,2-a]quinazolin-10-yl)piperidin-1-yl)methyl)cyclohexyl)-1H-1,2,3-triazol-1-yl)-3,3-dimethylbutanoyl)-4-hydroxy-N-(®-2-(2-methoxyethoxy)-1-(4-(4-methylthiazol-5-yl)phenyl)ethyl)pyrrolidine-2-carboxamide]	> 1		< 0.01	> 90	< 50		
CC(C)(C)[C@@H](C(=O)N1C[C@H](O)C[C@H]1C(=O)N[C@@H](CN1CCOCC1)c1ccc(-c2ccccc2F)cc1)n1cc([C@H]2CC[C@H](CN3CCC(c4ccc5c(c4)-n4c(nc(=O)c6c(Cl)cccc64)C54CCCCC4)CC3)CC2)nn1 [Compound A164, (2S,4R)-1-((S)-2-(4-((1r,4S)-4-((4-(4′-chloro-5′-oxo-5′H-spiro[cyclohexane-1,7′-indolo[1,2-a]quinazolin]-10′-yl)piperidin-1-yl)methyl)cyclohexyl)-1H-1,2,3-triazol-1-yl)-3,3-dimethylbutanoyl)-N—((R)-1-(2′-fluoro-[1,1′-biphenyl]-4-yl)-2-morpholinoethyl)-4-hydroxypyrrolidine-2-carboxamide]	0.1 to 1		< 0.01	> 90	50 to 69		
CC(=O)N1CCC([C@@H](C(=O)N2C[C@H](O)C[C@H]2C(=O)N[C@@H](C)c2ccc(-c3scnc3C)cc2)n2cc([C@H]3CC[C@H](CN4CCC(c5ccc6c(c5)-n5c(nc(=O)c7c(Cl)cccc75)C65CCCCC5)CC4)CC3)nn2)CC1 [Compound A111, (2S,4R)-1-((S)-2-(1-acetylpiperidin-4-yl)-2-(4-((1r,4S)-4-((4-(4′-chloro-5′-oxo-5′H-spiro[cyclohexane-1,7′-indolo[1,2-a]quinazolin]-10′-yl)piperidin-1-yl)methyl)cyclohexyl)-1H-1,2,3-triazol-1-yl)acetyl)-4-hydroxy-N—((S)-1-(4-(4-methylthiazol-5-yl)phenyl)ethyl)pyrrolidine-2-carboxamide]	0.01 to 0.1		< 0.01	> 90	70 to 90		
Cc1ncsc1-c1ccc([C@H](CC(=O)N2CCC(c3ccc4c(c3)-n3c(nc(=O)c5c(Cl)cccc53)C43CCCCC3)CC2)NC(=O)[C@@H]2C[C@@H](O)CN2C(=O)[C@@H](n2cc(C3CC3)nn2)C(C)(C)C)cc1 [Compound A140, (2S,4R)—N—((S)-3-(4-(4′-chloro-5′-oxo-5′H-spiro[cyclohexane-1,7′-indolo[1,2-a]quinazolin]-10′-yl)piperidin-1-yl)-1-(4-(4-methylthiazol-5-yl)phenyl)-3-oxopropyl)-1-((S)-2-(4-cyclopropyl-1H-1,2,3-triazol-1-yl)-3,3-dimethylbutanoyl)-4-hydroxypyrrolidine-2-carboxamide]	> 1		0.01 to 0.1	70 to 90	< 50		
Cc1ncsc1-c1ccc([C@H](C)NC(=O)[C@@H]2C[C@@H](O)CN2C(=O)[C@@H](NC(=O)CCN2CCC(c3ccc4c(c3)C3(CCCCC3)c3nc(=O)c5c(Cl)cccc5n3-4)CC2)C(C)(C)C)cc1 [Compound A6, (2S,4R)-1-((S)-2-(3-(4-(4′-chloro-5′-oxo-5′H-spiro[cyclohexane-1,7′-indolo[1,2-a]quinazolin]-9′-yl)piperidin-1-yl)propanamido)-3,3-dimethylbutanoyl)-4-hydroxy-N—((S)-1-(4-(4-methylthiazol-5-yl)phenyl)ethyl) pyrrolidine-2-carboxamide]	0.501 to 1		0.1 to 0.5			50 to 69	70 to 90

Second part, led by results:

DC50 (SMARCA4; [1]) [µM]	Dmax (SMARCA4; [2]) [%]	DC50 (SMARCA2; [3]) [µM]	Dmax (SMARCA2; [3]) [%]	Dmax (SMARCA4; [4]) [%]	Compound	Dmax (SMARCA4; HeLa, read-out: SMARC A4 Hela HiBit Dmax(%)) [%]	Dmax (SMARCA2; HeLa) [%]
< 0.1	> 90	< 0.1	> 90		Cc1ncsc1-c1ccc([C@H](C)NC(=O)[C@@H]2C[C@@H](O)CN2C(=O)[C@@H](NC(=O)CN2CCC(c3ccc4c(c3)-n3c(nc(=O)c5c(Cl)cccc53)C43CCCCC3)CC2)C(C)(C)C)cc1 [Compound A39, (2S,4R)-1-((S)-2-(2-(4-(4′-chloro-5′-oxo-5′H-spiro[cyclohexane-1,7′-indolo[1,2-a]quinazolin]-10′-yl)piperidin-1-yl)acetamido)-3,3-dimethylbutanoyl)-4-hydroxy-N—((S)-1-(4-(4-methylthiazol-5-yl)phenyl)ethyl)pyrrolidine-2-carboxamide]		
> 1		> 1	< 50	< 50	Cc1ncsc1-c1ccc([C@H](CNC(=O)[C@H]2CC[C@H](CN3CCC(c4ccc5c(c4)C4(CCCCC4)c4nc(=O)c6c(Br)cccc6n4-5)CC3)CC2)NC(=O)[C@@H]2C[C@@H](O)CN2C(=O)[C@@H](n2cc(C3CC3)nn2)C(C)(C)C)cc1 [Compound A117, (2S,4R)—N—((R)-2-((1r,4R)-4-((4-(4′-bromo-5′-oxo-5′H-spiro[cyclohexane-1,7′-indolo[1,2-a]quinazolin]-9′-yl)piperidin-1-yl)methyl)cyclohexane-1-carboxamido)-1-(4-(4-methylthiazol-5-yl)phenyl)ethyl)-1-((S)-2-(4-cyclopropyl-1H-1,2,3-triazol-1-yl)-3,3-dimethylbutanoyl)-4-hydroxypyrrolidine-2-carboxamide]		
< 0.1	> 90	< 0.1	> 90		Cc1ncsc1-c1ccc([C@H](C)NC(=O)[C@@H]2C[C@@H](O)CN2C(=O)[C@@H](n2cc(CCCCN3CCC(c4ccc5c(c4)C4(CCCCC4)c4nc(=O)c6c(Br)cccc6n4-5)CC3)nn2)C(C)(C)C)cc1 [Compound A56, (2S,4R)-1-((S)-2-(4-(4-(4-(4′-bromo-5′-oxo-5′H-spiro[cyclohexane-1,7′-indolo[1,2-a]quinazolin]-9′-yl)piperidin-1-yl)butyl)-1H-1,2,3-triazol-1-yl)-3,3-dimethylbutanoyl)-4-hydroxy-N—((S)-1-(4-(4-methylthiazol-5-yl)phenyl)ethyl)pyrrolidine-2-carboxamide]		
0.01 to 0.1		0.01 to 0.1	70 to 90	> 90	Cc1ncsc1-c1ccc([C@H](Cn2cc(CN3CCC(c4ccc5c(c4)C4(CCCCC4)c4nc(=O)c6c(Br)cccc6n4-5)CC3)nn2)NC(=O)[C@@H]2C[C@@H](O)CN2C(=O)[C@@H](n2cc(C3CC3)nn2)C(C)(C)C)cc1 [Compound A115, (2S,4R)—N—((R)-2-(4-((4-(4′-bromo-5′-oxo-5′H-spiro[cyclohexane-1,7′-indolo[1,2-a]quinazolin]-9′-yl)piperidin-1-yl)methyl)-1H-1,2,3-triazol-1-yl)-1-(4-(4-methylthiazol-5-yl)phenyl)ethyl)-1-((S)-2-(4-cyclopropyl-1H-1,2,3-triazol-1-yl)-3,3-dimethylbutanoyl)-4-hydroxypyrrolidine-2-carboxamide]		

Reference: patent US20260092071A1, “COMPOUNDS AND COMPOSITIONS AS SMARCA2/4 DEGRADERS AND USES THEREOF” (REGENTS OF THE UNIVERSITY OF MICHIGAN, priority 2022, published 2026)
